Assay results from US8766005B2, “Process for producing fingolimod salts” (Ratiopharm GmbH, priority 2009, dated 2014).

Assay: dissolution profile before and after storage
Type: physicochemical
Settings: during shelf life

- dissolution profile before and after storage: constant
SMILES: CCCCCCCCc1ccc(CCC(N)(CO)CO)cc1.Cl [polymorphic form B, fingolimod hydrochloride]
